According to patent US10238670B2, “9-aminomethyl minocycline compounds and methods of use thereof in urinary tract infection (UTI) treatment” (Paratek Pharmaceuticals, Inc., priority 2016, dated 2019):
In brackets after ≈: the same amount, converted by molar mass.

Columns and labels:
Experiment in all cases: In vitro MIC, 2010 surveillance isolates
[1] = test system: MSSA; format: cell-based
[2] = test system: MRSA; format: cell-based
[3] = test system: MS CoNS; format: cell-based, Coagulase-Negative Staphylococcus
[4] = test system: MR CoNS; format: cell-based, Coagulase-Negative Staphylococcus
[5] = test system: E. faecalis VS; format: cell-based
[6] = test system: E. faecalis VNS; format: cell-based
[7] = test system: E. faecium VS; format: cell-based
[8] = test system: E. faecium VNS; format: cell-based

CN[C@H](CC(C)C)C(=O)N[C@H]1C(=O)N[C@@H](CC(N)=O)C(=O)N[C@H]2C(=O)N[C@H]3C(=O)N[C@H](C(=O)N[C@H](C(=O)O)c4cc(O)cc(O)c4-c4cc3ccc4O)[C@H](O)c3ccc(c(Cl)c3)Oc3cc2cc(c3O[C@@H]2O[C@H](CO)[C@@H](O)[C@H](O)[C@H]2O[C@H]2C[C@](C)(N)[C@H](O)[C@H](C)O2)Oc2ccc(cc2Cl)[C@H]1O [Vancomycin]
% R (resistance) ([1]; Asia/Pac, Eucast breakpoints): 0%
MIC90 ([1]; Asia/Pac, N=641): 1 µg/mL (≈ 0.69 µM)
% R (resistance) ([1]; Europe, Eucast breakpoints): 0%
MIC90 ([1]; Europe, N=2109): 1 µg/mL (≈ 0.69 µM)
% R (resistance) ([1]; L. Amer, CLSI breakpoints): 0%
MIC90 ([1]; L. Amer, N=590): 1 µg/mL (≈ 0.69 µM)
% R (resistance) ([1]; N America, CLSI breakpoints): 0%
MIC90 ([1]; N America, N=2373): 1 µg/mL (≈ 0.69 µM)
% R (resistance) ([2]; Asia/Pac, Eucast breakpoints): 0%
MIC90 ([2]; Asia/Pac, N=428): 1 µg/mL (≈ 0.69 µM)
% R (resistance) ([2]; Europe, Eucast breakpoints): 0%
MIC90 ([2]; Europe, N=750): 1 µg/mL (≈ 0.69 µM)
% R (resistance) ([2]; L. Amer, CLSI breakpoints): 0%
MIC90 ([2]; L. Amer, N=506): 1 µg/mL (≈ 0.69 µM)
% R (resistance) ([2]; N America, CLSI breakpoints): 0%
MIC90 ([2]; N America, N=2508): 1 µg/mL (≈ 0.69 µM)
% R (resistance) ([3]; Asia/Pac, Eucast breakpoints): 0%
MIC90 ([3]; Asia/Pac, N=18): 2 µg/mL (≈ 1.38 µM)
% R (resistance) ([3]; Europe, Eucast breakpoints): 1.1%
MIC90 ([3]; Europe, N=185): 2 µg/mL (≈ 1.38 µM)
% R (resistance) ([3]; L. Amer, CLSI breakpoints): 0%
MIC90 ([3]; L. Amer, N=67): 2 µg/mL (≈ 1.38 µM)
% R (resistance) ([3]; N America, CLSI breakpoints): 0%
MIC90 ([3]; N America, N=191): 2 µg/mL (≈ 1.38 µM)
% R (resistance) ([4]; Asia/Pac, Eucast breakpoints): 1.3%
MIC90 ([4]; Asia/Pac, N=77): 2 µg/mL (≈ 1.38 µM)
% R (resistance) ([4]; Europe, Eucast breakpoints): 0.4%
MIC90 ([4]; Europe, N=510): 2 µg/mL (≈ 1.38 µM)
% R (resistance) ([4]; L. Amer, CLSI breakpoints): 0%
MIC90 ([4]; L. Amer, N=301): 2 µg/mL (≈ 1.38 µM)
% R (resistance) ([4]; N America, CLSI breakpoints): 0%
MIC90 ([4]; N America, N=461): 2 µg/mL (≈ 1.38 µM)
% R (resistance) ([5]; Asia/Pac, Eucast breakpoints): 0%
MIC90 ([5]; Asia/Pac, N=214): 2 µg/mL (≈ 1.38 µM)
% R (resistance) ([5]; Europe, Eucast breakpoints): 0%
MIC90 ([5]; Europe, N=669): 2 µg/mL (≈ 1.38 µM)
% R (resistance) ([5]; L. Amer, CLSI breakpoints): 0%
MIC90 ([5]; L. Amer, N=290): 2 µg/mL (≈ 1.38 µM)
% R (resistance) ([5]; N America, CLSI breakpoints): 0%
MIC90 ([5]; N America, N=863): 2 µg/mL (≈ 1.38 µM)
range of MICs (N <10, shown instead of MIC90) ([6]; Asia/Pac, N=1): >16
% R (resistance) ([6]; Europe, Eucast breakpoints): 100%
range of MICs (N <10, shown instead of MIC90) ([6]; Europe, N=8): > 16
% R (resistance) ([6]; L. Amer, CLSI breakpoints): 100%
range of MICs (N <10, shown instead of MIC90) ([6]; L. Amer, N=7): > 16
% R (resistance) ([6]; N America, CLSI breakpoints): 92.1%
MIC90 ([6]; N America, N=38): > 16 µg/mL
% R (resistance) ([7]; Asia/Pac, Eucast breakpoints): 0%
MIC90 ([7]; Asia/Pac, N=106): 1 µg/mL (≈ 0.69 µM)
% R (resistance) ([7]; Europe, Eucast breakpoints): 0%
MIC90 ([7]; Europe, N=303): 1 µg/mL (≈ 0.69 µM)
% R (resistance) ([7]; L. Amer, CLSI breakpoints): 0%
MIC90 ([7]; L. Amer, N=51): 1 µg/mL (≈ 0.69 µM)
% R (resistance) ([7]; N America, CLSI breakpoints): 0%
MIC90 ([7]; N America, N=115): 1 µg/mL (≈ 0.69 µM)
% R (resistance) ([8]; Asia/Pac, Eucast breakpoints): 100%
MIC90 ([8]; Asia/Pac, N=24): > 16 µg/mL
% R (resistance) ([8]; Europe, Eucast breakpoints): 100%
MIC90 ([8]; Europe, N=71): > 16 µg/mL
% R (resistance) ([8]; L. Amer, CLSI breakpoints): 100%
MIC90 ([8]; L. Amer, N=41): > 16 µg/mL
% R (resistance) ([8]; N America, CLSI breakpoints): 99.4%
MIC90 ([8]; N America, N=478): > 16 µg/mL
